Experiments:
[1] = target: T1, dopamine beta-hydroxylase (DBH) (Bos taurus, UniProt P15101); assay: In vitro DBH inhibition: conversion of tyramine to octopamine, oxygen uptake measured with a polarographic electrode; format: biochemical; conditions: pH 5, 37°C preferred; concentration at which DBH activity was halved; read-out: IC₅₀
T1 sequence (P15101 33-610): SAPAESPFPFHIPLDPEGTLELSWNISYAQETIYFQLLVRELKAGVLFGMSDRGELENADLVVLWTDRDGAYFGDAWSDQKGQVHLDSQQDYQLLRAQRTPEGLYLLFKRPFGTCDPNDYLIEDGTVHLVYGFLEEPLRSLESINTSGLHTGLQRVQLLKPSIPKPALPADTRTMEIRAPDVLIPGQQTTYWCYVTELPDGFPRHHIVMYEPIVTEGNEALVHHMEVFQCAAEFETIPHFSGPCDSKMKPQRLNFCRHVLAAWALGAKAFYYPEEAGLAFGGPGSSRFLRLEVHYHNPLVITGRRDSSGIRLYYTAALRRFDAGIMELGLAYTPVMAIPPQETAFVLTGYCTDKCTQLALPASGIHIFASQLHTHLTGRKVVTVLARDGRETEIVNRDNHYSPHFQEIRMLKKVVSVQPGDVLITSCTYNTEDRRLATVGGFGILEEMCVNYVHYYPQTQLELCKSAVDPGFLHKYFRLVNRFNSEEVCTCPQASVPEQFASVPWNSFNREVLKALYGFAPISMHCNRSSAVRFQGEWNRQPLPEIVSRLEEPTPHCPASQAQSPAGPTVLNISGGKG
Experimental: The DBH inhibitory properties of the compounds of this invention can readily be determined in vitro by standard and well known procedures for assaying conversion of tyramine to octopamine in the presence of dopamine beta-hydroxylase. Enzymatic oxygenation by DBH is determined in aqueous solution in the presence of molecular oxygen, an electron donor such as ascorbate, and the necessary cofactors for the enzyme at pH of 5 and a temperature of 20°-40°C, preferably 37°C. The test compound is added at the desired concentration, and the system is incubated.

DBH = assay: In vivo DBH inhibition: heart dopamine level in spontaneously hypertensive rats; conditions: Treated SHR's, 50 mg/kg, IP, 3 hours post dose; mean ± standard deviation; micrograms of dopamine per gram of heart tissue; *** p<.001 vs control
Experimental: In this test spontaneously hypertensive rats are dosed (i.p.) at 50 mg per kilogram of body weight and sacrificed three hours later.

[2] = tested on: spontaneously hypertensive rats (SHR's); assay: Antihypertensive effect: blood pressure monitored continuously in SHR's after ip administration; format: in vivo; conditions: 50 mg/kg; for Max Change MBP: mean difference ± standard deviation; for Max Change MBP (percent, in parentheses): percent change printed in parentheses
Experimental: The test compound is administered intraperitoneally (ip) to rats and the blood pressure monitored continuously.

Compound	IC50 [1]	Heart DA (DBH)	Max Change MBP [2]	Max Change MBP (percent, in parentheses) [2]
1-[(Fluoro-2-thienyl)methyl]-1,3-dihydro-2H-imidazole-2-thione [Compound 6]	2.9 µM	Treated .045±.005*** µg/g	-42±17 mmHg	25%
Cc1ccc(Cn2cc[nH]c2=S)s1 [Compound 5, 1,3-Dihydro-1-[(5-methyl-2-thienyl)methyl]-2H-imidazole-2-thione]	6 µM	Treated .048±.004*** µg/g	-37±19 mmHg	10%
S=c1[nH]ccn1Cc1cccs1 [Compound 1, 1,3-Dihydro-(2-thienylmethyl)-2H-imidazole-2-thione]	–	Treated .066±.005*** µg/g	-30±21 mmHg	18%
S=c1[nH]ccn1Cc1ccco1 [Compound 3, 1-(2-Furanylmethyl)-1,3-dihydro-2H-imidazole-2-thione]	–	Treated .079±.004*** µg/g	–	–
S=c1[nH]ccn1Cc1ccc(Cl)s1 [Compound 4, 1-[(5-Chloro-2-thienyl)methyl]-1,3-dihydro-2H-imidazole-2-thione]	–	Treated .046±.009*** µg/g	-22±5 mmHg	13%
S=c1[nH]ccn1Cc1ccsc1 [Compound 2, 1,3-Dihydro-1-(3-thienylmethyl)-2H-imidazole-2-thione]	–	Treated .066±.012*** µg/g	-21±27 mmHg	12%
